# Assay results published in patent publication US9295641B2, “Compositions containing alpha-2-adrenergic agonist components” (Allergan, Inc., priority 2000, dated 2016).
# Where two headings read alike, the source gives them in different places.
# Columns and labels:
# [1] = composition including chlorite, equilibrated ten days
# Method: Brimonidine tartrate is added to a test tube containing a composition including chlorite. The test tube was allowed to equilibrate for ten days. Samples obtained from the test tube are analyzed by HPLC using a size exclusion column in the presence or absence of a chaotrope, such as urea.
# [2] = 23° C.
# Method: The pH-solubility profile of brimonidine tartrate in an aqueous formulation (Ophthalmic Solution) was established in the pH range of about 5 to about 8 at 23° C. Table 1. […] Likewise, the temperature may be varied somewhat, for example, solubility curves may be performed at room temperature.
# The formulation vehicle was prepared by first dissolving polyvinyl alcohol (PVA) in water. The PVA was added to approximately ⅓ of the required total amount of purified water with constant stirring. The slurry was stirred for 20-30 minutes and then heated to 80-95° C. with constant stirring. The mixture was removed from the heat source within 1 hour after having reached the temperature of 80-90° C. and stirred for an additional 10 minutes to ensure homogeneity (Part I). The other ingredients of the Ophthalmic Solution, except for brimonidine tartrate, were dissolved in a separate container with an additional ⅓ of the required total amount of purified water (Part II). The PVA mixture (Part I) was then quantitatively transferred to Part II using several rinse volumes of purified water. The solution was adjusted to final volume with purified water without pH adjustment.
# Brimonidine tartrate was weighed and transferred to a 10 mL test tube containing 5 mL of the formulation vehicle described above. The pH of each sample was then adjusted to a desired value using dilute sodium hydroxide and/or dilute hydrochloric acid. The samples were placed in a rack on a stir plate and stirred at high speed to achieve uniform mixing for 2 days; a partition was placed between the rack and the stir plate to prevent any heat diffusion from the stir plate to the samples.
# At the end of two days of stirring, the pH value of each sample was measured, and then approximately 1 mL of each sample was placed in a micro centrifuge tube (polypropylene) and centrifuged at 4,000 rpm for 10 minutes. The supernatant was filtered through a 1 μm filter unit (Whatman, […], PTFE). The first 3-4 drops of the filtrate were discarded; the rest of the filtrate was received and diluted quantitatively with HPLC mobile phase. The dilute sample was then injected directly on the HPLC column (Dupont Zorbax, 250 mm×4.6 mm, 5 μm) for brimonidine tartrate assay in order to quantify the amount of brimonidine tartrate. A control of 0.5% brimonidine tartrate was prepared in the same formulation vehicle at pH 6.3-6.5 and assayed before (untreated) and after (treated) centrifugation and filtration. This was done to evaluate the potential loss of brimonidine tartrate in these two steps of the sample preparation. To ensure reproducibility, the study was repeated on consecutive days.
# [3] = for Solubility of Brimonidine tartrate: fifteen days
# Method: The effect of pH on the solubility of brimonidine tartrate in liquid formulations with and without SECs was determined. Particularly, the effect of the presence or absence of various concentrations of an exemplary SEC, sodium carboxymethylcellulose (CMC), on the solubility of brimonidine tartrate at various pH conditions was determined. The various concentrations of CMC tested with Brimonidine tartrate were 0%, 0.056%, 0.17%, 0.5%, 1.5% (w/v), see Table III.
# The samples tested also contained isotonic components, buffer components, and stabilized chlorine dioxide (Purite™), Table III. Sodium carboxymethylcellulose, sodium chloride, potassium chloride, calcium chloride dihydrate, and magnesium chloride hexahydrate were USP grade. Boric acid and sodium borate decahydrate were NF grade.
# Each sample (1 through 5) was brought to various points within a range of pH values from about 7 to about 10. The vials containing the sample solutions were placed on a laboratory rotator and left to equilibrate for fifteen days at 21° C. The sample solutions were filtered using a 25 mm diameter polysulfone cellulose acetate syringe type filter with 0.45 μm pore size. The filtered solutions were assayed for the amount of brimonidine tartrate in solution.
# Conventional HPLC and detection techniques were used to detect and determine the concentrations of soluble brimonidine tartrate. Solubility is plotted against pH for each CMC concentration. The experimental data points were fitted to a modified Henderson-Hasselbalch equation using a nonlinear least squares routine (Deltagraph version 4.0 DeltaPoint, Inc.), See FIG. 1.
# [4] = physchem
compound,measurement,setting,value
5-bromo-6-(2-imidozolin-2-ylamino)quinoxaline tartrate [Brimonidine tartrate],"Formation of dimers, by apparent molecular weights of brimonidine in solution",[1],a portion of the brimonidine tartrate monomer units have conjugated to form dimmers
same,Solubility,"[2]; STUDY 1, pH 5.55, Ophthalmic Solution, theoretical concentration based on sample weight, solution clear",> 16.44^b mgml^−1
same,Solubility,"[2]; STUDY 1, pH 5.92, Ophthalmic Solution",13.26 mgml^−1
same,Solubility,"[2]; STUDY 1, pH 6.14, Ophthalmic Solution",3.04 mgml^−1
same,Solubility,"[2]; STUDY 1, pH 6.57, Ophthalmic Solution",0.755 mgml^−1
same,Solubility,"[2]; STUDY 1, pH 7.00, Ophthalmic Solution",0.269 mgml^−1
same,Solubility,"[2]; STUDY 1, pH 7.45, Ophthalmic Solution",0.117 mgml^−1
same,Solubility,"[2]; STUDY 1, pH 7.83, Ophthalmic Solution",0.062 mgml^−1
same,Solubility,"[2]; STUDY 2, pH 5.50, Ophthalmic Solution, theoretical concentration based on sample weight, solution clear",> 20.06^b mgml^−1
same,Solubility,"[2]; STUDY 2, pH 5.92, Ophthalmic Solution",16.08 mgml^−1
same,Solubility,"[2]; STUDY 2, pH 6.06, Ophthalmic Solution",5.01 mgml^−1
same,Solubility,"[2]; STUDY 2, pH 6.90, Ophthalmic Solution",0.319 mgml^−1
same,Solubility,"[2]; STUDY 2, pH 7.40, Ophthalmic Solution",0.119 mgml^−1
same,Solubility,"[2]; STUDY 2, pH 7.77, Ophthalmic Solution",0.063 mgml^−1
same,Solubility,"[2]; STUDY 2, pH 7.86, Ophthalmic Solution",0.058 mgml^−1
same,Solubility,"[2]; STUDY 2, pH 7.88, Ophthalmic Solution",0.054 mgml^−1
same,Solubility of Brimonidine tartrate,"[3]; 0% CMC, pH 7.11, 21° C.",0.2064 % w/v
same,Solubility of Brimonidine tartrate,"[3]; 0% CMC, pH 7.68, 21° C.",0.0786 % w/v
same,Solubility of Brimonidine tartrate,"[3]; 0% CMC, pH 8.50, 21° C.",0.0286 % w/v
same,Solubility of Brimonidine tartrate,"[3]; 0% CMC, pH 10.09, 21° C.",0.0218 % w/v
same,Solubility of Brimonidine tartrate,"[3]; 0.056% CMC, pH 6.67, 21° C.",0.9302 % w/v
same,Solubility of Brimonidine tartrate,"[3]; 0.056% CMC, pH 7.11, 21° C.",0.2828 % w/v
same,Solubility of Brimonidine tartrate,"[3]; 0.056% CMC, pH 7.77, 21° C.",0.0721 % w/v
same,Solubility of Brimonidine tartrate,"[3]; 0.056% CMC, pH 9.93, 21° C.",0.0234 % w/v
same,Solubility of Brimonidine tartrate,"[3]; 0.17% CMC, pH 6.68, 21° C.",1.4200 % w/v
same,Solubility of Brimonidine tartrate,"[3]; 0.17% CMC, pH 6.93, 21° C.",0.7302 % w/v
same,Solubility of Brimonidine tartrate,"[3]; 0.17% CMC, pH 7.81, 21° C.",0.0735 % w/v
same,Solubility of Brimonidine tartrate,"[3]; 0.17% CMC, pH 8.55, 21° C.",0.0328 % w/v
same,Solubility of Brimonidine tartrate,"[3]; 0.17% CMC, pH 10.05, 21° C.",0.0241 % w/v
same,Solubility of Brimonidine tartrate,"[3]; 0.5% CMC, pH 6.67, 21° C.",1.4464 % w/v
same,Solubility of Brimonidine tartrate,"[3]; 0.5% CMC, pH 7.10, 21° C.",0.3693 % w/v
same,Solubility of Brimonidine tartrate,"[3]; 0.5% CMC, pH 7.56, 21° C.",0.1451 % w/v
same,Solubility of Brimonidine tartrate,"[3]; 0.5% CMC, pH 8.46, 21° C.",0.0313 % w/v
same,Solubility of Brimonidine tartrate,"[3]; 0.5% CMC, pH 9.94, 21° C.",0.0250 % w/v
same,Solubility of Brimonidine tartrate,"[3]; 1.5% CMC, pH 6.68, 21° C.",1.4256 % w/v
same,Solubility of Brimonidine tartrate,"[3]; 1.5% CMC, pH 7.35, 21° C.",0.1904 % w/v
same,Solubility of Brimonidine tartrate,"[3]; 1.5% CMC, pH 8.10, 21° C.",0.0498 % w/v
same,Solubility of Brimonidine tartrate,"[3]; 1.5% CMC, pH 8.67, 21° C.",0.0311 % w/v
same,Solubility of Brimonidine tartrate,"[3]; 1.5% CMC, pH 10.11, 21° C.",0.0222 % w/v
same,Soluble Brimonidine tartrate (FIG. 1),"[3]; pH 7.5, 0% CMC",1000 ppm
same,Soluble Brimonidine tartrate (FIG. 1),"[3]; pH 7.5, 0.056% CMC",1300 ppm
same,Soluble Brimonidine tartrate (FIG. 1),"[3]; pH 7.5, 0.17% CMC",1300 ppm
same,Soluble Brimonidine tartrate (FIG. 1),"[3]; pH 7.5, 0.5% CMC",1600 ppm
same,Soluble Brimonidine tartrate (FIG. 1),"[3]; pH 7.5, 1.5% CMC",about 1400 ppm
Brc1c(NC2=NCCN2)ccc2nccnc12 [5-bromo-6-(2-imidozolin-2-ylamino)quinoxaline],pKa,[4],~7.4
